For orientation: Tmax means the time from dosing to the highest level.

SMILES strings stand for the structures.

This data set is described as follows: Bioavailability study: Modoflaner plasma concentration in dogs after oral gel capsule. Format: in vivo. The note with it: oral gelatin capsule, same dosage per kg body weight, 5 dogs per group. The method, then: The highest plasma concentration measured was set to 1 and the other plasma concentrations are given relatively to this highest value.
Ten dogs, divided into two groups comprising five animals each, were orally treated with a gel capsule containing either modification I or IV of Modoflaner at the same dosage of Modoflaner per kg body weight.
For kinetic evaluation, blood was sampled at predetermined time points (0, 0.5, 1, 2, 4, 6, 8, 24, 32, 48, 72 and 144 hours) before and after treatment (n=12 per dog). All samples were deep-frozen immediately after plasma preparation and stored at −18° C. or below until shipment to the analytical laboratory.
The samples were analyzed with regard to their concentration in Modoflaner.
The plasma samples were deproteinized by mixing 100 μL plasma with 900 μL of a mixture of 100 mL of 0.40 g ammonium acetate in 1 L water plus 100 μL formic acid and 600 mL acetonitrile, treatment for 30 s on a vortex mixer and subsequent centrifugation. The quantitative determination was performed by HPLC (Column ZORBAX Eclipse Plus C18 Rapid Resolution HD, 2.1×50 mm, 1.8 μm Agilent Technologies; Isocratic pump: Mobile phase: Solution of methanol/water (7+3, v/v)+10 mMol ammonium formate+0.12 mL/L formic acid Flow rate: 0.5 mL/min; Binary pump: Mobile phase A: water+10 mMol ammonium formate+0.12 mL/L formic acid Mobile phase B: methanol+10 mMol ammonium formate+0.12 mL/L formic acid Flow rate: 0.6 mL/min) with detection by tandem mass spectrometry using a Sciex API 5500 mass spectrometer (negative ionisation mode using the transition from Modoflaner precursor ion at m/z 714 to its product ion at m/z 694). The lower limit of quantitation was 1 μg/L.
For calculation of the mean values, results below the limit of quantitation were set to half the limit of quantitation.

With `O=C(Nc1cccc(C(=O)Nc2c(I)cc(C(F)(C(F)(F)F)C(F)(F)F)cc2C(F)(F)F)c1F)c1ccc(F)nc1` [crystalline modification I of Modoflaner, 6-fluoro-N-(3-(2-iodo-4-(perfluoropropan-2-yl)-6-(trifluoromethyl)phenylcarbamoyl)-2-fluoro-phenyl)-nicotinamide], the Tmax turned out to be 32 h.

For `O=C(Nc1cccc(C(=O)Nc2c(I)cc(C(F)(C(F)(F)F)C(F)(F)F)cc2C(F)(F)F)c1F)c1ccc(F)nc1` [6-fluoro-N-(3-(2-iodo-4-(perfluoropropan-2-yl)-6-(trifluoromethyl)phenylcarbamoyl)-2-fluoro-phenyl)-nicotinamide], the “Cmax relative to Cmax of crystalline modification I” value is “about 3 times”. Moreover, the Tmax (listed as modification IV) is 4 h.

These data come from patent US12509425B2, “Tablet comprising modoflaner as an active component” (VIRBAC, priority 2020, dated 2025).
